Laboratory results reported in patent US4309559A, “Sulphonamides useful as pesticides” (FBC Limited, priority 1977, dated 1982).
Where two headings read alike, the source gives them in different places.

Experiments:
[1] = tested on: barley powdery mildew Erysiphe graminis; assay: Barley powdery mildew control on barley plants; assay type: in vivo; details: 2000 ppm; soil and leaves; 10 days; controls less than 5%
[2] = tested on: potato blight, Phytophthora infestans; assay type: in vivo; details: 5 days, controls less than 5%

Compound	% Control, barley powdery mildew [1] [%]	% Control, potato blight ([2]; 125 ppm) [%]	% Control, potato blight ([2]; 500 ppm) [%]	% Control, potato blight ([2]; 2,000 ppm) [%]
Cc1cccc(C)c1N(CCCC#N)S(C)(=O)=O [Example 146]	92			
CS(=O)(=O)N(CCCC#N)c1ccc(Cl)c(Cl)c1 [Example 147]	96			
Cc1ccc(N(CCCC#N)S(C)(=O)=O)cc1C [Example 148]	89			
CC(=O)CN(c1c(C)cccc1C)S(C)(=O)=O [Example 211, N-2-oxopropyl-2',6'-dimethyl-methanesulphonanilide]		90	94	99
COC(C)(CN(c1c(C)cccc1C)S(C)(=O)=O)OC [Example 224, N-(2,2-dimethoxypropyl)-2',6'-dimethyl-methanesulphonanilide]			55	98
Cc1cccc(C)c1N(CC1(C)OCCO1)S(C)(=O)=O [Example 231, N-[(2-methyl-1,3-dioxolan-2-yl)methyl]-2',6'-dimethylmethanesulphonanilide]				98
